Laboratory results as given in patent US10463709B2, “Short synthetic peptide for treating diseases and/or conditions related to angiogenesis” (MacKay Memorial Hospital, priority 2015, dated 2019).
Ends that are not written are not given here.

Columns and labels:
RPMI8226 cells = test: MTT assay, VEGF-induced proliferation of RPMI8226 cells; format: cell-based; settings: for effect on VEGF-induced proliferation of RPMI8226 cells: VEGF 50 ng/ml, 25 μM peptide, 24 hrs, MTT
Description: The multiple myeloma line RPMI8226 was cultivated in complex medium (RPMI1640) supplemented with 10% (vol/vol) heat-inactivated fetal calf serum (Invitrogen), 50 μg/mL penicillin, 50 μg/mL streptomycin, and 2 mM L-glutamine at 37° C. in a 5% CO2 atmosphere. RPMI8226 cells were cultured in serum-free RPMI1640 medium for 24 hrs, and then cells were seeded in 48-well culture plates (3×10^5 cells/well) and continued to culture in 0.5 ml fresh serum-free RPMI1640 medium containing 25 μM peptide for another 24 hrs. The cell viability was determined by the MTT assay. Briefly, 50 μL of MTT stock solution (50 μL) (5 mg MTT dissolved in 1 ml of sterile PBS) was added to each culture well. In addition, 50 μL of the MTT stock solution was added in 500 μL of medium as the negative control. The culture plate was incubated at 37° C. for 4 hours. Aliquots (450 μl) from each sample were taken to a new well of 48-well culture plate, adding 100 μL DMSO, mixing thoroughly using the pipette and reacted at 37° C. for 20 min and read absorbance at 570 nm. These synthesized peptides were then subject to MTT assay, in which vascular endothelial growth factor (VEGF) was used as a stimulant to induce cell proliferation. Results are depicted in FIGS. 1 to 4.

HUVECs [1] = test: VEGF-induced HUVEC proliferation assay; format: cell-based; settings: VEGF (10 ng/mL) + 25 μM peptide; vs untreated HUVECs
Description: HUVECs (1×10^5 cells per well of 6-well plate) were grown in Medium 200 with Low Serum Growth Supplement (LSGS Kit, supplement contains 1.9% FBS, 3 ng/ml bFGF, 10 μg/ml heparin, 1 μg/ml hydrocortisone, and 10 ng/ml EGF). Culture plates were coated with 2% gelatin. Cells (passages 4-8) were cultured at 37° C. in a humidified atmosphere of 5% CO2. […]
HUVECs (1×10^5 cells per well of 6-well plate) in Medium 200 supplemented with LSGS Kit were allowed to grow onto 6-well plates coated with 2% gelatin for 24 hours at 37° C. in 5% CO2. The culture medium was then replaced with serum free Medium 200 overnight. […] Then, cells were harvested by trypsin-EDTA and counted using a hemocytometer.

HUVECs [2] = test: Endothelial cell capillary-like tube formation assay; format: cell-based; settings: VEGF (10 ng/mL) + 25 μM peptide; vs untreated HUVECs
Description: To examine the effect of the present synthetic peptide on in vitro angiogenesis, growth factor-reduced matrigel was pipetted into pre-chilled 24-well plates (150 μl matrigel per well) and polymerized for 45 min at 37° C. […] In this experiment, images were captured using a Cannon camera on Zeiss inverted microscope with magnification ×40 and tube length was quantified using Image analysis software (Image-Pro Plus). The control peptide as used in the present invention has the sequence of DLYRVR (SEQ ID NO: 10).

rat aortic ring = test: Rat aortic ring assay (ex vivo microvessel sprouting); design: species or system Sprague Dawley rats; settings: beta-FGF induced; peptide 50 μM
Description: Thoracic aortas were removed from euthanized 10-week-old male Sprague Dawley rats, and gently stripped off periaortic fibroadipose tissue. Aortas were sectioned to about 2-mm length rings, which were embedded in Matrigel. To induce angiogenesis, human recombinant bFGF (50 ng/ml) or bFGF plus the peptide (50 μM) was added in Matrigel. Gel (200 μl) containing an aortic ring was polymerized in 12-well plates (37° C. for 30 min) and then incubated with 1 ml of Medium 200 supplemented with 100 units/ml penicillin, and […] streptomycin and 2% FBS at 37 ° C. The cultures were propagated at 37 ° C. in a humidified incubator for up to 7 days. Sprouts were recorded using an inverted microscope platform (Leica DM16000B) with bright-field optics. Each ring was scored by three independent observers on a scale 0-4 depending on the degree of sprouting vessel being observed (0=no sprouting, 4=profuse sprouting). The experiment was repeated in triplicates.

B16-F10 melanoma cells = test: Experimental pulmonary metastasis in mice; format: in vivo, C57BL/6 mice; settings: for effect on number of colonies on the surface of the lung / in vivo metastasis / No. lung colonies: 10 mg/Kg intraperitoneal every 2 days; for No. lung colonies: day 8, n = 5; for Inhibition (%): lung colonies vs vehicle, 10 mg/Kg
Description: 2×10^5 B16-F10 cells were suspended in 100 μl PBS and checked for viability using trypan blue staining (>95%). The B16-F10 cells were then injected into the tail vein of the 6-week-old female C57BL/6 mice; while vehicle (DMSO), the present synthetic peptide or the control peptide (10 mg/kg) were administered by intraperitoneal injections every 2 days after the B16-F10 cell injection. Five mice were used for each group. On day 8 after inoculation of cells, the lungs were removed, and the number of visible colonies on the surface of the lungs were counted using a dissecting microscope.
Metastasis is the foremost cause of death from cancer. In this example, to investigate the efficacy of the present synthetic peptide on the metastasis of cancer cells, B16-F10 cells were injected into the tail vein of a mouse, the animal was then treated with the present synthetic peptide (7-mer or 7-mer DD, 10 mg/Kg) by intraperitoneal injections every 2 days. Upon completion of the experiment, the lungs were then removed and the tumor colonies visible to the eyes were then counted. Results are depicted in FIG. 10.

[3] = test system: STZ-induced diabetic mice; test: Vascular abnormalities in the retina of diabetic mice; format: in vivo; settings: for Fluorescence Intensity (Fold): leaked FITC-BSA in entire retina, vs vehicle
Description: Diabetic mice were generated by a single intraperitoneal injection of streptozotocin (STZ) (150 mg/kg body weight). STZ was freshly prepared in 0.1 M citrate buffer (pH 4.5). After injection, mice were supplied with 10% sucrose overnight to prevent sudden hypoglycemic shock. After 1 week, mice with non-fasting blood glucose levels >500 mg/dl were defined as diabetic and used for the experiments. DMSO Vehicle or the present synthetic peptide (10 mg/kg; n≥3 per peptide) were administered by intraperitoneal injections twice a day. After treatment for 24 h, mice were intraperitoneal injected with 100 mg/kg of BSA-FITC for further 30 min.
To determine vascular lesions (hemorrhaging areas) in retina, the animals were euthanized by CO2 inhalation, and the eyes were enucleated and fixed by 2% paraformaldehyde for 2 hr and flat-mounted onto glass slides to obtain optical sections by an epifluorescence microscopy. Vascular lesions in the retina was scored in all four retinal quadrants of flat mounts by using a 20× objective. Six microscopic fields were sampled in each quadrant in both the central and peripheral retina, and data were presented as the average number of lesions/retina.
Vascular FITC-BSA leakage was determined by a fluorescence spectrofluorometer based on standard curves of FITC-BSA at excitation and emission wavelengths of 488 and 535 nm, respectively, and then normalized to a non-injected control retina. For this analysis, retinas were dissected from treated and untreated diabetic mice after BSA-FITC injections, and each was solubilized in 300 μL ice-cold PBS.
Diabetic retinopathy is characterized by blood-retinal barrier (BRB) breakdown and neurotoxicity. To evaluate the possible beneficial effect of the present synthetic peptides on diabetic retinopathy, STZ-induced diabetic mice were intraperitoneally injected with 7-mer peptide, DMSO vehicle or the control peptide (SEQ ID NO: 22). The retinal vascular abnormality was then monitored by detecting the extravasation of BSA-fluorescein. Results are depicted in FIG. 11.

Substance	effect on VEGF-induced proliferation of RPMI8226 cells (RPMI8226 cells)	Cell number (Fold) (HUVECs [1])	Tube length (Fold) (HUVECs [2])	level of sprouting microvessels around the aortic ring (rat aortic ring)	effect on number of colonies on the surface of the lung / in vivo metastasis (B16-F10 melanoma cells)	No. lung colonies (B16-F10 melanoma cells)	Inhibition (%) (B16-F10 melanoma cells)	extravasation of FITC-BSA [3]	Fluorescence Intensity (Fold) [3] [Fold]	biological activity of the analogue relative to the 7-mer (summary statement of the description) (RPMI8226 cells; summary of Example 1 findings)
NH2-Asp-Leu-Tyr-Arg-Met-Lys-Ser-COOH (DLYRMKS; not fully specified (N-terminus, C-terminus); printed as NH2-Asp-Leu-Tyr-Arg-Met-Lys-Ser-COOH) [7-mer MK]	could sustain 7-mer bioactivity, only partly	1.04 ± 0.062	1.18 ± 0.31	inhibited	may suppress in vivo metastasis	79 ± 26.4	65.0	may significantly prevent	0.37 ± 0.095	
NH2-Asp-Leu-Tyr-Arg-Leu-Arg-Ser-COOH (DLYRLRS; not fully specified (N-terminus, C-terminus); printed as NH2-Asp-Leu-Tyr-Arg-Leu-Arg-Ser-COOH) [7-mer (V→L)]	could sustain 7-mer bioactivity, only partly	1.02 ± 0.049	1.41 ± 0.37	inhibited	may suppress in vivo metastasis	75 ± 30.4	66.8	may significantly prevent	0.33 ± 0.079	relatively the same bioactivity
NH2-Asn-Val-Tyr-Arg-Val-Arg-Ser-COOH (NVYRVRS; not fully specified (N-terminus, C-terminus); printed as NH2-Asn-Val-Tyr-Arg-Val-Arg-Ser-COOH) [7-mer NV]	could sustain 7-mer bioactivity, only partly	1.01 ± 0.086	1.41 ± 0.32	inhibited	may suppress in vivo metastasis	55 ± 16.5	75.8	may significantly prevent	0.35 ± 0.11	
NH2-Asp-Leu-Tyr-Lys-Val-Pro-Ser-COOH (DLYKVPS; not fully specified (N-terminus, C-terminus); printed as NH2-Asp-Leu-Tyr-Lys-Val-Pro-Ser-COOH) [7-mer KP]	could sustain 7-mer bioactivity, only partly	1.02 ± 0.075	1.62 ± 0.29	inhibited	may suppress in vivo metastasis	69 ± 11.5	69.3	may significantly prevent	0.37 ± 0.13	
NH2-Asp-Ile-Tyr-Arg-Val-Pro-Ser-COOH (DIYRVPS; not fully specified (N-terminus, C-terminus); printed as NH2-Asp-Ile-Tyr-Arg-Val-Pro-Ser-COOH) [7-mer IP]	could sustain 7-mer bioactivity, only partly	1.05 ± 0.067	1.66 ± 0.20	inhibited	may suppress in vivo metastasis	63 ± 9.4	72.0	may significantly prevent	0.38 ± 0.12	
